From ChEMBL document CHEMBL5338788, “Discovery of a New-Generation S-Adenosylmethionine-Noncompetitive Covalent Inhibitor Targeting the Lysine Methyltransferase Enhancer of Zeste Homologue 2” (J Med Chem, 2023)
Activity calls are given as the source filed them. No cut-off for these calls is given here.

Experiments:
[1] = target: T1, Histone-lysine N-methyltransferase 2A (Homo sapiens, UniProt Q03164); experiment: Inhibition of MLL1 (unknown origin) using histone peptide/SAM as substrate by HTRF assay
[2] = target: Histone-arginine methyltransferase CARM1 (Homo sapiens) (UniProt Q86X55); experiment: Inhibition of PRMT4 (unknown origin) using histone peptide/SAM as substrate at 10 uM by AlphaLisa assay
Pfeiffer [3] = experiment: Downregulation of H3K27me3 level in human Pfeiffer cells at 1 uM incubated for 96 hrs followed by compound washout measured after 120 hrs by Western blot analysis; type: functional, cell-based; conditions: time 216.0 hrs
SU-DHL-2 = experiment: Antiproliferative activity against human SUDHL2 cells expressing EZH2 mutant assessed as inhibition of cell proliferation incubated for 6 days by CCK8 assay; type: functional, cell-based; conditions: SU-DHL-2, 144 h
Pfeiffer [4] = experiment: Downregulation of H2K27me3 level in human Pfeiffer cells at 0.05 to 1 uM by Western blot analysis; type: functional, cell-based; conditions: dose 0.05-1 µM, time 48-96 hrs, TDE = time-dependent effect
HT = experiment: Antiproliferative activity against human HT cells expressing wild-type EZH2 assessed as inhibition of cell proliferation incubated for 6 days by CCK8 assay; type: functional, cell-based; conditions: time 6.0 day
RL = experiment: Antiproliferative activity against human RL cells expressing EZH2 mutant assessed as inhibition of cell proliferation incubated for 6 days by CCK8 assay; type: functional, cell-based; conditions: time 6.0 day
KARPAS-422 [5] = experiment: Downregulation of H2K27me3 level in human KARPAS-422 cells incubated for 48 to 96 hrs by Western blot analysis; type: functional, cell-based; conditions: dose 0.05-1 µM, time 48-96 hrs
KARPAS-422 [6] = experiment: Downregulation of H2K27me3 level in human KARPAS-422 cells at 0.05 to 1 uM by Western blot analysis; type: functional, cell-based; conditions: dose 0.05-1 µM, time 48-96 hrs, TDE = time-dependent effect
DB = experiment: Antiproliferative activity against human DB cells expressing wild-type EZH2 assessed as inhibition of cell proliferation incubated for 6 days by CCK8 assay; type: functional, cell-based; conditions: 144 h
Karpas-1106P = experiment: Antiproliferative activity against human KARPAS-1106P cells expressing wild-type EZH2 assessed as inhibition of cell proliferation incubated for 6 days by CCK8 assay; type: functional, cell-based; conditions: time 6.0 day
[7] = target: Histone-arginine methyltransferase CARM1 (Homo sapiens, UniProt Q86X55); experiment: Inhibition of PRMT4 (unknown origin) using histone peptide/SAM as substrate by AlphaLisa assay
[8] = AUC (0 to last) in Sprague-Dawley rat at 3 mg/kg, iv measured for 0.25 to 24 hrs by LC-MS/MS analysis; type: ADME, organism-based; design: time 0.25-24 hrs, dose 3 mg/kg, route iv; conditions: in vivo
Pfeiffer [9] = experiment: Downregulation of H2K27me3 level in human Pfeiffer cells incubated for 48 to 96 hrs by Western blot analysis; type: functional, cell-based; conditions: dose 0.05-1 µM, time 48-96 hrs
[10] = target: T2, Histone-lysine N-methyltransferase 2B (Homo sapiens, UniProt Q9UMN6); experiment: Inhibition of MLL4 (unknown origin) using histone peptide/SAM as substrate by HTRF assay
[11] = target: T3, Histone-lysine N-methyltransferase, H3 lysine-36 specific (Homo sapiens, UniProt Q96L73); experiment: Inhibition of NSD1 (unknown origin) using histone peptide/SAM as substrate at 10 uM by AlphaLisa assay
[12] = target: T4, DNA (cytosine-5)-methyltransferase 1 (Homo sapiens, UniProt P26358); experiment: Inhibition of DNMT1 (unknown origin) using histone peptide/SAM as substrate by AlphaLisa assay
[13] = target: T5, Protein arginine N-methyltransferase 5 (Homo sapiens, UniProt O14744); experiment: Inhibition of PRMT5 (unknown origin) using histone peptide/SAM as substrate by AlphaLisa assay
U2932 = experiment: Antiproliferative activity against human U2932 cells expressing wild-type EZH2 assessed as inhibition of cell proliferation incubated for 6 days by CCK8 assay; type: functional, cell-based; conditions: U2932, 144 h
[14] = target: Histone-lysine N-methyltransferase EHMT2 (Homo sapiens, UniProt Q96KQ7); experiment: Inhibition of G9a (unknown origin) using histone peptide/SAM as substrate by AlphaLisa assay
[15] = target: T2, Histone-lysine N-methyltransferase 2B; experiment: Inhibition of MLL4 (unknown origin) using histone peptide/SAM as substrate at 10 uM by HTRF assay
[16] = Cmax in Sprague-Dawley rat at 10 mg/kg, po measured for 0.25 to 24 hrs by LC-MS/MS analysis; type: ADME, organism-based; design: time lower 0.25 hrs, dose 10 mg/kg, time upper 24 hrs, route po; conditions: in vivo
[17] = target: Histone-lysine N-methyltransferase EHMT1 (Homo sapiens) (UniProt Q9H9B1); experiment: Inhibition of GLP (unknown origin) using histone peptide/SAM as substrate at 10 uM by AlphaLisa assay
[18] = Metabolic stability in human liver microsomes assessed as half life preincubated for 10 mins followed by NADPH addition measured upto 60 mins by LC-MS/MS analysis; type: ADME, Microsome; conditions: time < 70 min
[19] = target: T3, Histone-lysine N-methyltransferase, H3 lysine-36 specific; experiment: Inhibition of NSD1 (unknown origin) using histone peptide/SAM as substrate by AlphaLisa assay
[20] = target: Histone-lysine N-methyltransferase NSD2 (Homo sapiens) (UniProt O96028); experiment: Inhibition of NSD2 (unknown origin) using histone peptide/SAM as substrate at 10 uM by AlphaLisa assay
OPM-2 = experiment: Antiproliferative activity against human OPM-2 cells expressing wild-type EZH2 assessed as inhibition of cell proliferation incubated for 6 days by CCK8 assay; type: functional, cell-based; conditions: OPM-2, 144 h
Pfeiffer [21] = experiment: Effect on total H3 level in human Pfeiffer cells at 0.05 to 1 uM incubated for 48 to 96 hrs by Western blot analysis; type: functional, cell-based; conditions: dose 0.05-1 µM, time 48-96 hrs
[22] = target: T6, Protein arginine N-methyltransferase 1 (Homo sapiens, UniProt Q99873); experiment: Inhibition of PRMT1 (unknown origin) using histone peptide/SAM as substrate at 10 uM by AlphaLisa assay
Pfeiffer [23] = experiment: Antiproliferative activity against human Pfeiffer cells expressing EZH2 […] mutant assessed as inhibition of cell proliferation incubated for 6 days by CCK8 assay; type: functional, cell-based; conditions: 144 h
[24] = target: Histone-lysine N-methyltransferase EHMT1 (Homo sapiens, UniProt Q9H9B1); experiment: Inhibition of GLP (unknown origin) using histone peptide/SAM as substrate by AlphaLisa assay
[25] = Half life in Sprague-Dawley rat at 3 mg/kg, iv measured for 0.25 to 24 hrs by LC-MS/MS analysis; type: ADME, organism-based; conditions: in vivo, time 0.25-24 hrs
[26] = target: T6, Protein arginine N-methyltransferase 1; experiment: Inhibition of PRMT1 (unknown origin) using histone peptide/SAM as substrate by AlphaLisa assay
SU-DHL10 = experiment: Antiproliferative activity against human SU-DHL-10 cells expressing EZH2 mutant assessed as inhibition of cell proliferation incubated for 6 days by CCK8 assay; type: functional, cell-based; conditions: time 6.0 day
KARPAS-422 [27] = experiment: Antiproliferative activity against human KARPAS-422 cells expressing EZH2 mutant assessed as inhibition of cell proliferation incubated for 6 days by CCK8 assay; type: functional, cell-based; conditions: time 6.0 day
KARPAS-422 [28] = experiment: Antiproliferative activity against human KARPAS-422 cells expressing EZH2 Y641N mutant assessed as inhibition of cell proliferation incubated for 6 days by CCK8 assay; type: functional, cell-based; conditions: KARPAS-422, 144 h
[29] = Bioavailability in Sprague-Dawley rat at 10 mg/kg, po measured for 0.25 to 24 hrs by LC-MS/MS analysis; type: ADME, organism-based; conditions: in vivo, time 0.25-24 hrs
[30] = target: T5, Protein arginine N-methyltransferase 5; experiment: Inhibition of PRMT5 (unknown origin) using histone peptide/SAM as substrate at 10 uM by AlphaLisa assay
[31] = target: Histone-lysine N-methyltransferase EHMT2 (Homo sapiens) (UniProt Q96KQ7); experiment: Inhibition of G9a (unknown origin) using histone peptide/SAM as substrate at 10 uM by AlphaLisa assay
[32] = AUC (0 to last) in Sprague-Dawley rat at 10 mg/kg, po measured for 0.25 to 24 hrs by LC-MS/MS analysis; type: ADME, organism-based; design: dose 10 mg/kg, time upper 24 hrs, time lower 0.25 hrs, route po; conditions: in vivo
[33] = target: Histone-lysine N-methyltransferase NSD2 (Homo sapiens, UniProt O96028); experiment: Inhibition of NSD2 (unknown origin) using histone peptide/SAM as substrate by AlphaLisa assay
[34] = Antiproliferative activity against human WILL-1 cells expressing wild-type EZH2 assessed as inhibition of cell proliferation incubated for 6 days by CCK8 assay; type: functional, cell-based; conditions: WILL-1, 144 h
WSUDLCL2 = experiment: Antiproliferative activity against human WSUDLCL2 cells expressing wild-type EZH2 assessed as inhibition of cell proliferation incubated for 6 days by CCK8 assay; type: functional, cell-based; conditions: WSUDLCL2, 144 h
[35] = Apparent permeability in human Caco-2 cells at 20 uM measured for 35 to 95 mins by LC-MS/MS analysis; type: ADME, cell-based; conditions: time 35-95 min
Pfeiffer [36] = experiment: Effect on EZH2 level in human Pfeiffer cells at 0.05 to 1 uM incubated for 48 to 96 hrs by Western blot analysis; type: functional, cell-based; conditions: dose 0.05-1 µM, time 48-96 hrs
[37] = target: T1, Histone-lysine N-methyltransferase 2A; experiment: Inhibition of MLL1 (unknown origin) using histone peptide/SAM as substrate at 10 uM by HTRF assay
[38] = target: T4, DNA (cytosine-5)-methyltransferase 1; experiment: Inhibition of DNMT1 (unknown origin) using histone peptide/SAM as substrate at 10 uM by AlphaLisa assay
Pfeiffer [39] = experiment: Antiproliferative activity against human Pfeiffer cells expressing EZH2 mutant assessed as inhibition of cell proliferation incubated for 6 days by CCK8 assay; type: functional, cell-based; conditions: time 6.0 day

T2 sequence (Q9UMN6 whole entry): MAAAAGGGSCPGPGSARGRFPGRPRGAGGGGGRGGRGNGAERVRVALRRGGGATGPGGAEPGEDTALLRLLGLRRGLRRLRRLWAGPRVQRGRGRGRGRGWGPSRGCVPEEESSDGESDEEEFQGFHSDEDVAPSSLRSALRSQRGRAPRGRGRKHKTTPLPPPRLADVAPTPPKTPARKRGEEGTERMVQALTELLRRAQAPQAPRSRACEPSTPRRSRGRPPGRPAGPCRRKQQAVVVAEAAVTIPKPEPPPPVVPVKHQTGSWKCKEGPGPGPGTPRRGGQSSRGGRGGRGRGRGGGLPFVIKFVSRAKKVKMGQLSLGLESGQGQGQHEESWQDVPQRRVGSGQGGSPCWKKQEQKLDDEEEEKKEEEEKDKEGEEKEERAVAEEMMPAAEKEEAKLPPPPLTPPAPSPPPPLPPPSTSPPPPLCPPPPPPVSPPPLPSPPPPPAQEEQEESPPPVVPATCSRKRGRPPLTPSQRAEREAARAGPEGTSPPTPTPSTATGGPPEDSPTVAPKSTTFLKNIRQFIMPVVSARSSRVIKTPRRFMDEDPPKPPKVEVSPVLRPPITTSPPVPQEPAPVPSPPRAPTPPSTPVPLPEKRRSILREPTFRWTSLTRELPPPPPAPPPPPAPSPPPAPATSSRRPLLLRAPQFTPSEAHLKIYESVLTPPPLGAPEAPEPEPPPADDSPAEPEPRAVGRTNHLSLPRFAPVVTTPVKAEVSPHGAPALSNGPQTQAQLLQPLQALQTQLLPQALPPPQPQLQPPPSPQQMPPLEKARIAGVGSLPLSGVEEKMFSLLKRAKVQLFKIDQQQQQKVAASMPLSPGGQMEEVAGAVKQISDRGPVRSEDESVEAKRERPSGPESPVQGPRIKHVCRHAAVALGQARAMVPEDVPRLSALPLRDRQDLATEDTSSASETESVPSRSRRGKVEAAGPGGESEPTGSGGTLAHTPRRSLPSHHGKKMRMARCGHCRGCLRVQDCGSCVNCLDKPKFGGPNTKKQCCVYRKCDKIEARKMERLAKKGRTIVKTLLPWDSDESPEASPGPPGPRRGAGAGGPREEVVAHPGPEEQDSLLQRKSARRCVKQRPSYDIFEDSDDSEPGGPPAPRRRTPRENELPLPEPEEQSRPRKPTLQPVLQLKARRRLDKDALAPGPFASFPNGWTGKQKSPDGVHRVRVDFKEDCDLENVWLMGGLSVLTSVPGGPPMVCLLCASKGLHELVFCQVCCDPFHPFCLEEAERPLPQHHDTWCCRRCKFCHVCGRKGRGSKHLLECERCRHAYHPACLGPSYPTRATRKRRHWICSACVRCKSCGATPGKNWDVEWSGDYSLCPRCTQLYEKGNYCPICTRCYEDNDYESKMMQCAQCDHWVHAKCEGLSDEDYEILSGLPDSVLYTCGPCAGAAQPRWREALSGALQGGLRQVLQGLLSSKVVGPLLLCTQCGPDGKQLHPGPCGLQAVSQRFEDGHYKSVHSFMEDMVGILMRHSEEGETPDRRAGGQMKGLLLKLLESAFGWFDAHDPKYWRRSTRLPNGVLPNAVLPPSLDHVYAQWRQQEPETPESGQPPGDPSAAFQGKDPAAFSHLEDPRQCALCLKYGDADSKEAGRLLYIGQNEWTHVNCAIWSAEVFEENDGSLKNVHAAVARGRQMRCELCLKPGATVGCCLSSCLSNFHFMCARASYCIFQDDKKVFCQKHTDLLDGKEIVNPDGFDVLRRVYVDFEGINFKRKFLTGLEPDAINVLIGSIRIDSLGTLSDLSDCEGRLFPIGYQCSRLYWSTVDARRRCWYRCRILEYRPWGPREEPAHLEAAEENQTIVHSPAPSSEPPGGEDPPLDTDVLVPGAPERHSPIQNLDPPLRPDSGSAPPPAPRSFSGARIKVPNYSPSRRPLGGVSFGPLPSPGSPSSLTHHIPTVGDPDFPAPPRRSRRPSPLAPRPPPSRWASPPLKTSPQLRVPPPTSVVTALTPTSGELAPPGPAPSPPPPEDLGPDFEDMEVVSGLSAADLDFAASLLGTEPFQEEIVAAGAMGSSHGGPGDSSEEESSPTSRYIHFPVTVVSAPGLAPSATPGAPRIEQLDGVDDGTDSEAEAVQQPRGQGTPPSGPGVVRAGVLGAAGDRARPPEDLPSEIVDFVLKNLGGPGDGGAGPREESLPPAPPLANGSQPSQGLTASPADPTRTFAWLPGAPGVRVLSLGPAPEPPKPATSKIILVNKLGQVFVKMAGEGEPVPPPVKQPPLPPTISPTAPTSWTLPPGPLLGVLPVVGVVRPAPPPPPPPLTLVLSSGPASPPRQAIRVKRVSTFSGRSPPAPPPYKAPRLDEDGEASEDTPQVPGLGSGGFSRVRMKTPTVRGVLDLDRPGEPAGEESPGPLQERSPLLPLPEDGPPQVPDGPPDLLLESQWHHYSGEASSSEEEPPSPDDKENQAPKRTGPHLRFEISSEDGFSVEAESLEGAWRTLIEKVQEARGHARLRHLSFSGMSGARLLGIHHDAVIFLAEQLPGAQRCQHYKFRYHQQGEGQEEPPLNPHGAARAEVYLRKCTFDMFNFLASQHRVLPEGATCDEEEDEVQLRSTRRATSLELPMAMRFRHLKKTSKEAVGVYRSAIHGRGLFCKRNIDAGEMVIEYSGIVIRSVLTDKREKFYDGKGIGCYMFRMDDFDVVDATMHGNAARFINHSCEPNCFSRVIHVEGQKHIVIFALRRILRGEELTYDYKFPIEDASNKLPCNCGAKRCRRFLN
T5 sequence (O14744 whole entry): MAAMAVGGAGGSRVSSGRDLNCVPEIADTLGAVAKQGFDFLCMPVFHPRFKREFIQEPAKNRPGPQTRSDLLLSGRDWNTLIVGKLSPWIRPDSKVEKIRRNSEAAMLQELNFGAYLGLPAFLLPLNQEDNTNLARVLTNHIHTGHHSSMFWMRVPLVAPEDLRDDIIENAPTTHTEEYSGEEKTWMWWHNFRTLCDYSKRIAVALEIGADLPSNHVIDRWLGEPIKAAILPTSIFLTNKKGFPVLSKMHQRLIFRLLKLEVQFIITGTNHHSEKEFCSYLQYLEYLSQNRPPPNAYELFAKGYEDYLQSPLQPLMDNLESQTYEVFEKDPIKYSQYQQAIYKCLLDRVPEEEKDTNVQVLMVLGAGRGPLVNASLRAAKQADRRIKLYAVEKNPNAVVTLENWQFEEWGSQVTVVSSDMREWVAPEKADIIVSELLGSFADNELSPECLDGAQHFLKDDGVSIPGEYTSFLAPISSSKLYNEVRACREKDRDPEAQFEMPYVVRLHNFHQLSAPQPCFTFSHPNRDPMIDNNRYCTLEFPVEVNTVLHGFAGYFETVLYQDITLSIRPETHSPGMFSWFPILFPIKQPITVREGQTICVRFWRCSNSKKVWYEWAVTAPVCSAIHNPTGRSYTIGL
T4 sequence (P26358 whole entry): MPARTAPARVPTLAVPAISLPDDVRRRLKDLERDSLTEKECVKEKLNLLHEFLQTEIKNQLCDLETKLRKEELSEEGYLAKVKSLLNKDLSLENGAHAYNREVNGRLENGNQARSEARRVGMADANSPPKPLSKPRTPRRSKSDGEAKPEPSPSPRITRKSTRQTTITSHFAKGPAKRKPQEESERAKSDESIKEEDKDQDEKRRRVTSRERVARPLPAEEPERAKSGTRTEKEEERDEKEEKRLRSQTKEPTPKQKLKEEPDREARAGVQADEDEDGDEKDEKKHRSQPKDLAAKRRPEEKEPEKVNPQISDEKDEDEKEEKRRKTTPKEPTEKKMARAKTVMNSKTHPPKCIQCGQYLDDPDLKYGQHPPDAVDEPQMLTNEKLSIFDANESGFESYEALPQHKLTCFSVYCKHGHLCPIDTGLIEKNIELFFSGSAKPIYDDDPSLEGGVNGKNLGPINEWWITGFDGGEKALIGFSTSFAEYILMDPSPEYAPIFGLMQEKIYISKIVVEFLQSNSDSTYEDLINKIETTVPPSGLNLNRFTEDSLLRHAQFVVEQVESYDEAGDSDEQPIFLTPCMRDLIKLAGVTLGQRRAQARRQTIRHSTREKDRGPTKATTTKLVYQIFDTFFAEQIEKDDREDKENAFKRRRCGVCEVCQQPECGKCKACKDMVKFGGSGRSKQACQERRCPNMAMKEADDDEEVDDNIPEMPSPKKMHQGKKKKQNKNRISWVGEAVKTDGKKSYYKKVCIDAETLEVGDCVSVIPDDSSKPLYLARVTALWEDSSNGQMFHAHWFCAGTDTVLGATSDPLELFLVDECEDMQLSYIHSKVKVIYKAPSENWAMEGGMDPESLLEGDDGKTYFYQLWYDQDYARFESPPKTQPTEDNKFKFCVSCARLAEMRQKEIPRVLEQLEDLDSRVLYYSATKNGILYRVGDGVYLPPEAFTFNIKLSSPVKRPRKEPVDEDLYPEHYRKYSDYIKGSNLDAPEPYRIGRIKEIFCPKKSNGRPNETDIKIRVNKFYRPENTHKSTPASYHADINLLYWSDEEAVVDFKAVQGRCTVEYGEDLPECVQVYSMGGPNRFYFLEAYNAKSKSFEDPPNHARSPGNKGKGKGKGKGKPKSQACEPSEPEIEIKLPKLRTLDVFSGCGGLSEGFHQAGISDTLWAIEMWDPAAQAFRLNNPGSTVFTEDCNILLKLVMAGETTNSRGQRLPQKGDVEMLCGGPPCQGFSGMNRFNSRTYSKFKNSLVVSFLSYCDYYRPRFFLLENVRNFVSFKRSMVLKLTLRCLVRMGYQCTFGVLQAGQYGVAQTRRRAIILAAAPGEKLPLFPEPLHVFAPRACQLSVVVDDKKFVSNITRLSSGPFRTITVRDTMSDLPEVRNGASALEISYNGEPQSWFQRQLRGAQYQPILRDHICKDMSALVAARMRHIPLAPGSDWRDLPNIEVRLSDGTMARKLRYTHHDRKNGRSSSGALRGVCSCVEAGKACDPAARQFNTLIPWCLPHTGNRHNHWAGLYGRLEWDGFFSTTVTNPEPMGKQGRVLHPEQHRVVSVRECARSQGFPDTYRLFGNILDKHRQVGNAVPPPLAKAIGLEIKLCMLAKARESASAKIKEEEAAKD

IC50 [1]: > 10 µM
inhibition [2]: inactive
IC50 (SU-DHL-2): > 3 µM
IC50 [7]: > 10 µM
AUC(0-t) [8]: 4890 ng·h/mL
IC50 [10]: > 10 µM
inhibition [11]: inactive
IC50 [12]: > 10 µM
IC50 [13]: > 10 µM
IC50 [14]: > 10 µM
inhibition [15]: inactive
Cmax [16]: 29.5 ng/mL
inhibition [17]: inactive
half-life [18]: 33.8 min
IC50 [19]: > 10 µM
inhibition [20]: inactive
inhibition [22]: inactive
IC50 [24]: > 10 µM
t1/2 [25]: 16.8 min
IC50 [26]: > 10 µM
IC50 (KARPAS-422 [28]): 0.064 µM
bioavailability [29]: 0.05%
inhibition [30]: inactive
inhibition [31]: inactive
AUC(0-t) [32]: 8.16 ng·h/mL
IC50 [33]: > 10 µM
Papp at 20 µM [35]: 0.052 ×10⁻⁶ cm/s
inhibition [37]: inactive
inhibition [38]: inactive
Structure (SMILES): C=CC(=O)NCc1cc(C(=O)NCc2c(SC)cc(C)[nH]c2=O)c(C)c(N(CC)C2CCOCC2)c1
Activity (Pfeiffer [3]): Active
Activity (Pfeiffer [4]): Tde
inhibition (HT): Active
inhibition (RL): Active
Activity (KARPAS-422 [5]): Dose-Dependent Effect
Activity (KARPAS-422 [6]): Tde
IC50 (DB): > 3 µM
inhibition (Karpas-1106P): Active
Activity (Pfeiffer [9]): Dose-Dependent Effect
IC50 (U2932): > 3 µM
IC50 (OPM-2): > 3 µM
Activity (Pfeiffer [21]): inactive
IC50 (Pfeiffer [23]): 0.022 µM
inhibition (SU-DHL10): Active
inhibition (KARPAS-422 [27]): Active
IC50 [34]: > 3 µM
IC50 (WSUDLCL2): > 3 µM
Activity (Pfeiffer [36]): inactive
inhibition (Pfeiffer [39]): Active
